Test results published in patent US9428487B2, “Heteroaromatic amides and thioamides as pesticides” (Bayer Intellectual Property GmbH, priority 2008, dated 2016).
Like-named read-outs stand apart in the source and are kept apart here.

Legend:
[1] = Determination of log P values by HPLC on reversed-phase column (formic acid method); type: physicochemical; conditions: reversed-phase C 18, acidic range (pH 3.4), formic acid eluents, 55° C., read-out: logP (HCOOH)
Summary of the method: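 Reversed-phase C18 HPLC per EEC Directive 79/831 Annex V.A8, pH 3.4, acetonitrile/water with formic acid, gradient 10% to 95% acetonitrile in 4.25 min. log P obtained from retention times by linear interpolation between successive unbranched alkan-2-ones (C3–C16) of known log P.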

[2] = system: green peach aphid (Myzus persicae); assay: Myzus test; type: in vivo; conditions: read-out: efficacy (aphids killed)
Summary of the method: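 Active ingredient formulated in acetone/dimethylformamide with alkylaryl polyglycol ether emulsifier, diluted in emulsifier-containing water. Sprayed onto Chinese cabbage leaf discs carrying all aphid stages; % efficacy scored after set time (100% = all aphids dead).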

[3] = reversed-phase HPLC column (C 18), pH 3.4, HPLC
[4] = application rate 500 g/ha, spray on Chinese cabbage leaf slices

SMILES	chromatographic logP [1, 3]	pest or weed control at 500 g/ha [2, 4]	chromatographic logP ([1]; HPLC)	pest or weed control at 500 g/ha ([2]; in Brassica rapa)
CN(CCF)C(=O)c1cnc(-c2cccnc2)s1 [Compound 136]	1.17	≥ 70%	–	–
Cc1nc(-c2cccnc2)sc1C(=O)NCC1OCC(C)O1 (stereo not shown) [Compound 62]	1.34	≥ 70%	–	–
Cc1nc(-c2cccnc2)sc1C(=O)N(CCCF)CC(F)(F)F [Compound 124]	2.11	≥ 70%	–	–
Cc1cc(CNC(=O)c2sc(-c3cccnc3)nc2C)no1 [Compound 98]	1.45	≥ 70%	–	–
Cc1nc(CN(C)C(=O)c2cnc(-c3cccnc3)s2)c(C)o1 [Compound 166]	1.44	≥ 70%	–	–
Cc1nc(-c2cccnc2)sc1C(=O)NC1(C#N)CC1 [Compound 66]	1.2	≥ 70%	–	–
Cc1nc(-c2cccnc2)sc1C(=O)N(Cc1ccco1)CC(F)(F)F [Compound 131]	2.56	≥ 70%	–	–
Cc1nccc(CNC(=O)c2sc(-c3cccnc3)nc2C)n1 [Compound 107]	1.03	≥ 70%	–	–
Cc1nc(-c2cccnc2)sc1C(=O)NCc1nccs1 [Compound 130]	1.38	≥ 70%	–	–
Cc1nc(-c2cccnc2)sc1C(=O)NCc1ncccn1 [Compound 40]	1.05	≥ 70%	–	–
CCNC(=O)c1cnc(-c2cccnc2)s1 [Compound 55]	1.03	≥ 70%	–	–
CCN(OC)C(=O)c1cnc(-c2cccnc2)s1 [Compound 183]	1.53	≥ 70%	–	–
Cc1nc(-c2cccnc2)sc1C(=O)NCCCl [Compound 177]	–	–	1.41	≥ 70%
Cc1nc(-c2cccnc2)sc1C(=O)NC(C#N)C(C)C (stereo not shown) [Compound 63]	1.85	≥ 70%	–	–
Cc1cc(C)nc(CNC(=O)c2sc(-c3cccnc3)nc2C)n1 [Compound 95]	1.24	≥ 70%	–	–
CCOC(=O)CN(OC)C(=O)c1cnc(-c2cccnc2)s1 [Compound 178]	1.65	≥ 70%	–	–
CCN(CC#N)C(=O)c1cnc(-c2cccnc2)s1 [Compound 137]	1.28	≥ 70%	–	–
COC(=O)C[n+]1cccc(-c2nc(C)c(C(=O)NCC(F)(F)F)s2)c1 [Compound 138]	1.09	≥ 70%	–	–
CN(CC(C)(F)F)C(=O)c1cc(-c2cccnc2)nn1C [Compound 27]	0.99	≥ 70%	–	–
Cc1ccc(CNC(=O)c2cnc(-c3cccnc3)s2)o1 [Compound 186]	1.77	≥ 70%	–	–
